Results: patent US10858308B2, “Compounds and compositions” (priority 2017, dated 2020)
Marks after values point to notes of the source that are not given here.

How the values were obtained:
[1] = system: Herpes Simplex virus-1 (HSV 1); assay: HSV 1 spread and plaque assay in Vero cells
[2] = system: Salmonella enterica serovar Typhimurium ATCC 14028; assay: MIC by broth dilution assay, Salmonella Typhimurium; format: cell-based; settings: for MIC: Salmonella enterica, read-out: Sample's MIC
Description: (§1) Minimal inhibitory concentration (MIC) of each compound was tested by broth dilution assay.
(§2) • McFarland standard 0.5 • Falcon round-bottom 5 ml tubes • Disposable loops (1 μl and 10 μl) • Graduated pipettes (20 μl-1000 μl) • Disposable Petri dishes Media • Sterile normal saline • TSB (Tryptic Soy Broth) • TSA (Tryptic Soy Agar) Bacterial and Fungal strains • Salmonella enterica serovar Typhimurium ATCC 14028 • Staphylococcus aureus ATCC 6538 • Candida albicans ATCC 10231
(§3) Compounds 2, 3 and 4 were diluted in dimethyl sulfoxide (DMSO) at 10 mg/ml and were future 2-fold diluted for testing in TSB.
(§4) From a pure o/n culture, material from at least 3-4 colonies was chosen and suspended totally in 4 ml saline in tubes. The suspension was mixed.
(§5) The turbidity of inoculum was adjusted to match that of standard by comparing visually with the McFarland 0.5 standard using white paper with black lines as background.
(§6) The McFarland 0.5 suspension were diluted as follows for the species tested at this course:
Gr-neg.: 10 μl McFarl. 0.5 into 10 ml broth
(§7) The suspensions were used for inoculation within 15 minutes.
(§8) The Falcon round-bottom 5 ml tubes were inoculated with 500 μl of the inoculum suspension with 500 μl two-fold dilutions of antimicrobial agent using a graduated pipette
(§9) Tubes were sealed and incubated at 37° C. for 18-22 hours. This was done to avoid losing growth media and to avoid cross contamination.
(§10) McFarland 0.5 is approximately 10^8 CFU/ml. Standardization of inoculum is essential because the interpretation of the results is based on a certain inoculum.
(§11) Each tube contained approximately 5×10^5-1×10^6 CFU/ml after inoculation of bacteria and […] 5×10^3-1×10^4 CFU/ml of yeast.
(§12) Purity of the inoculum suspension was checked.
(§13) Growth in the 3 positive control tubes was checked.
(§14) Minimal inhibitory concentration (MIC) was recorded as the lowest concentration of antimicrobial agent with no visible growth.

[3] = system: Staphylococcus aureus ATCC 6538; assay: MIC by broth dilution assay, Staphylococcus aureus; format: cell-based; settings: ATCC6538, 37° C. 18-22 hours, 4 experiments, inoculum 1.2-2.1 × 10^6 cfu/ml, range bacteriostatic-bactericide concentration, read-out: Sample's MIC
Description: as §1, §2, §3, §4, §5, §6
Gr-pos.: 50 μl McFarl. 0.5 into 10 ml broth
as §7
The Falcon round-bottom 5 ml tubes were inoculated with 500 μl of the inoculum suspension with 500 μl two-fold dilutions of antimicrobial agent using a graduated pipette […]
as §14

[4] = system: Candida albicans ATCC 10231; assay: MIC by broth dilution assay, Candida albicans; format: cell-based; settings: 4 experiments, inoculum 3-6.5 × 10^3 cfu/ml, range bacteriostatic-bactericide concentration; for Sample's MIC: 37° C. 18-22 hours; for MIC: ATCC10231, 37° C. 18-22 hours, read-out: Sample's MIC
Description: as §1, §2, §3, §4, §5, §6, §7, §8, §9, §10, §11, §12, §13, §14

Surfactant activity = format: physicochemical
pH of aqueous solution = format: physicochemical
Vaccinia virus (WR-VV) = format: cell-based; set-up: dose or concentration left out as unconfirmed; settings: BSC 40 cells pre-treated
[5] = in the presence of 100 μg/ml of the compounds
[6] = in the presence of the compounds

Cc1ccc(C(C)C)c(OC(=O)C[N+](C)(C)CCCCCCCCCC[N+](C)(C)CC(=O)Oc2cc(C(C)C)ccc2C)c1 [Compound 2, N^1-{2-[2-methyl-5-(propan-2-yl)phenoxy]-2-oxoethyl}-N^1,N^1,N^10,N^10-tetramethyl-N^10-{2-[5-methyl-2-(propan-2-yl)phenoxy]-2oxoethyl}decane-1,10-bis(aminium) dichloride]
HSV-1 infectivity reduced by [1, 5]: 80%
HSV-1 infectivity reduced by [1, 6]: 50%
MIC [2]: 62.5 to 125 µg/mL
MIC [3]: 31.2 to 62.5 µg/mL
Sample's MIC [4]: 62.5-125* μg/ml
MIC [4]: 62.5 to 125 µg/mL
melting point: 92 to 96 °C

N^1-{2-[2-methyl-5-(propan-2-yl)phenoxy]-2-oxoethyl}-N^1,N^1,N^10,N^10-tetramethyl-N^10-{2-[5-methyl-2-(propan-2-yl)phenoxy]-2oxoethyl}decane-1,10-bis(aminium) dichloride [Compound 4]
Sample's MIC ([2]; Salmonella enterica serovar Typhimurium ATCC 14028, broth dilution, 37° C. 18-22 hours, 4 experiments, inoculum 5 × 10^3 cfu/ml, range bacteriostatic-bactericide concentration): 31.25 to 62.5 µg/mL
Sample's MIC [4]: 31.25 to 62.5 µg/mL

Cc1ccc(C(C)C)c(OC(=O)C[N+](C)(C)CCCCCCCCCC[N+](C)(C)CCCCCCCCCC[N+](C)(C)CC(=O)Oc2cc(C(C)C)ccc2C)c1 [Compound 3, N^1-{{2-[2-methyl-5-(propan-2-yl)phenoxy]-(2-oxoethyldimethyl)azaniumyl bromide}decyl}-N^10-{2-[5-methyl-2-(propan-2-yl)phenoxy]-2oxoethyl}-N^1,N^1,N^1,N^10,N^10-tetramethyldecane-1,10-bis(aminium) dichloride]
HSV-1 infectivity reduced by [1, 5]: 80%
HSV-1 infectivity reduced by [1, 6]: 50%
inhibitory effect on HSV 1 spreading and plaque number ([1]; pre-treated, liquid and agar plaque assay, two days of infection, dose dependent): strong inhibitory effect
MIC [2]: 31.2 to 62.5 µg/mL
MIC [3]: 15.6 to 31.2 µg/mL
Surfactant activity (Surfactant activity): Displays Surfactant Activity
MIC [4]: 31.2 to 62.5 µg/mL
Aqueous solution pH (pH of aqueous solution): 7.2
inhibition of Vaccinia virus plaque formation (Vaccinia virus (WR-VV)): none of compounds 2 or 3 inhibited Vaccinia virus (VV) plaque formation
